Our source for the KA values is ChEMBL document CHEMBL1156316, “Sterol effect on interaction between amphidinol 3 and liposomal membrane as evidenced by surface plasmon resonance” (Bioorg Med Chem Lett, 2010).

The subject of test [1] is Lipid bilayer. Kind of test: Binding affinity to synthetic palmitoyl-oleoyl-phosphatidylcholine liposome at 10 uM by surface plasmon resonance assay. (Surface plasmon resonance follows binding to a sensor surface in real time, without labels.)
Test [2] has as its system Lipid bilayer. Put plainly: Binding affinity to synthetic palmitoyl-oleoyl-phosphatidylcholine liposome at 10 uM by surface plasmon resonance assay in presence of 5% cholesterol.
In test [3] the test system is Lipid bilayer. Kind of test: Binding affinity to synthetic palmitoyl-oleoyl-phosphatidylcholine liposome at 10 uM by surface plasmon resonance assay in presence of 5% ergosterol.
In test [4] the test system is Lipid bilayer. Kind of test: Binding affinity to synthetic palmitoyl-oleoyl-phosphatidylcholine liposome assessed as association constant for compound- PPC liposome reorientation complex at 10 uM by surface plasmon resonance assay.
Test [5] has as its system Lipid bilayer. Kind of test: Binding affinity to synthetic palmitoyl-oleoyl-phosphatidylcholine liposome assessed as association constant for compound- PPC liposome reorientation complex at 10 uM by surface plasmon resonance assay in presence of 5% cholesterol.
Test [6] relates to Lipid bilayer. Kind of test: Binding affinity to synthetic palmitoyl-oleoyl-phosphatidylcholine liposome assessed as association constant for compound- PPC liposome reorientation complex at 10 uM by surface plasmon resonance assay in presence of 5% ergosterol.
Test [7] relates to Lipid bilayer. Kind of test: Binding affinity to synthetic palmitoyl-oleoyl-phosphatidylcholine liposome assessed as overall equilibrium association constant at 10 uM by surface plasmon resonance assay.
The subject of test [8] is Lipid bilayer. Kind of test: Binding affinity to synthetic palmitoyl-oleoyl-phosphatidylcholine liposome assessed as overall equilibrium association constant at 10 uM by surface plasmon resonance assay in presence of 5% cholesterol.
The subject of test [9] is Lipid bilayer. Put plainly: Binding affinity to synthetic palmitoyl-oleoyl-phosphatidylcholine liposome assessed as overall equilibrium association constant at 10 uM by surface plasmon resonance assay in presence of 5% ergosterol.

In the case of `C=C/C=C/CC/C=C/C=C/C=C/CC/C=C/[C@@H](O)[C@@H](O)C1O[C@@H]([C@H](O)[C@H](O)C(=C)CCC(O)[C@H]2C[C@@H](O)[C@@H](O)C([C@@H](O)[C@H](O)/C=C(\C)CC[C@H](O)C[C@H](O)[C@@H](O)[C@@H](C)C[C@H](O)[C@@H](O)CCCCCC(O)CCC[C@@H](O)/C=C/C[C@@H](O)/C=C/C[C@H](O)CO)O2)CC(O)C1O` (some centres undefined), the KA in the test on Lipid bilayer [1] was 0.901 10^3/M; in the test with Lipid bilayer [2], 180 10^3/M; in the test with Lipid bilayer [3], 143 10^3/M; with Lipid bilayer [4], 0.93 10^3/M; in the test with Lipid bilayer [5], 3.92 10^3/M; with Lipid bilayer [6], 28.6 10^3/M. For the same compound, the KA in the test with Lipid bilayer [7] is 0.764 10^3/M; with Lipid bilayer [8] it was 721 10^3/M; in the test with Lipid bilayer [9] it was 3970 10^3/M.
